In publication PMC4127593, “Novel human D-amino acid oxidase inhibitors stabilize an active-site lid-open conformation” (Bioscience Reports, 2014):
Entries after “also recorded” stand apart in the source; their conditions may differ. Where two headings read alike, the source gives them in different places.

Tests used:
hDAAO [1] = molecular target: T1, hDAAO (Homo sapiens, UniProt P14920); assay: LC–MS-based hDAAO inhibition assay, D-phenylglycine as substrate; type: biochemical; settings: 5 nM His-hDAAO, 5 mM D-phenylglycine, 450 nM FAD; mean±S.D.
T1 construct: hexaHis (N); made in house
T1 sequence (P14920 whole entry): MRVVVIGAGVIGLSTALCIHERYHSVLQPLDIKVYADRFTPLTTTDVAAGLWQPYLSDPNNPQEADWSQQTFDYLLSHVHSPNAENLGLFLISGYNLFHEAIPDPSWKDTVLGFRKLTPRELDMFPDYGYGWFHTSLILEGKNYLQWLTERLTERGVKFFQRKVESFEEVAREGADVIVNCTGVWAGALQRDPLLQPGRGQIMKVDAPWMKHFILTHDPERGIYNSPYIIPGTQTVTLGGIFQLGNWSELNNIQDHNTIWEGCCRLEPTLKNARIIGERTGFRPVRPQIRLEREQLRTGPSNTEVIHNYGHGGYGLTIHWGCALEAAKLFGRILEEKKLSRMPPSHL
Description: (§1) All enzymatic assays were conducted at room temperature (23–24°C) in 96-well plate format. Dose response data to generate IC50 data were analysed via Prism (Graphpad Software) or by a script executed by Pipeline Pilot (Accelrys).
For the LC–MS-based hDAAO inhibition assay, his-hDAAO, FAD and compound inhibitors were incubated for 20–30 min. After that period, D-phenylglycine was added and reaction proceeded for 1 h. […] Following the 1 h enzymatic reaction, an equal volume of 100% (v/v) acetonitrile was added. Quantitation of benzylformic acid concentrations was performed using negative ion liquid chromatography/mass spectrometry/mass spectrometry (LC–MS/MS). A 2 μl aliquot of sample was injected onto an ultra-high performance liquid chromatographic system (UPLC Waters Corp) equipped with an API 5500 QTrap mass spectrometer detector (Applied Biosystems/MDS Sciex) operated in the negative TurboIonSpray® mode. […] The mobile phases used for elution consisted of 1.0 mM ammonium formate with 0.2% (v/v) formic acid in water (A) and 1.0 mM ammonium formate with 0.2% (v/v) formic acid in acetonitrile (B) at a total flow rate of 0.600 ml/min. Wash solvent 1 was 3% formic acid in acetonitrile and wash solvent 2 was 3% formic acid in water. Calibration standards were injected once before and once after the analysis of unknown samples to construct a standard curve. A linear weighted (1/concentration^2) regression analysis of the analyte peak area ratio versus theoretical concentration was used to produce calibration curves from standards.

[2] = molecular target: T2, hDAAO (human D-amino acid oxidase) (Homo sapiens, UniProt P14920); assay: hDAAO inhibition assay, Amplex Red format, D-serine as substrate; type: biochemical; settings: for IC50: 0.73 nM His-hDAAO, 5 mM D-serine, 450 nM FAD, pH 7.4, mean±S.D.; for IC50 values relative to compound 3: in several of the biochemical assays
T2 construct: hexaHis (N); made in house
T2 sequence (P14920 whole entry): as above
Description: as §1
(§2) For our assay, N-terminal hexaHis (His)-tagged hDAAO (prepared as described previously [32]), HRP (horseradish peroxidase), FAD, and compound inhibitor were incubated for 20–30 min. After that pre-incubation period, D-serine and Amplex Red were added and reaction proceeded for 1 hour. Fluorescent product, caused by hydrogen peroxide-dependent, Amplex Red oxidation during hDAAO-catalysed substrate turnover, was measured on a FlexStation II (Molecular Devices) in endpoint mode with these settings: excitation 530 nm, emission 590 nm, cutoff 590 nm and photomultiplier tube on Low. […] For the counter assay, hDAAO was omitted and 800 nM hydrogen peroxide (Sigma) was included.

rDAAO (rat DAAO) = rDAAO (rat DAAO) (Rattus norvegicus, UniProt O35078); assay: rDAAO inhibition assay, Amplex Red format
Sequence of rDAAO (rat DAAO) (O35078 whole entry): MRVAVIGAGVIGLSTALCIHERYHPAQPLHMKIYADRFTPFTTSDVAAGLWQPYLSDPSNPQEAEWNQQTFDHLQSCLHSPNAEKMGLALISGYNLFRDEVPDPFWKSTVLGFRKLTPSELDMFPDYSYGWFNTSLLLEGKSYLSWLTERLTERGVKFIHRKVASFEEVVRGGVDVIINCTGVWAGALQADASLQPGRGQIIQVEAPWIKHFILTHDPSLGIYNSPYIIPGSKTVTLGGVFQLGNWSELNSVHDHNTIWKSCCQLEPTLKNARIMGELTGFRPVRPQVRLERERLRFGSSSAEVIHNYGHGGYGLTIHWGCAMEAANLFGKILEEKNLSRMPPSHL
Description: as §1, §2

[3] = molecular target: HRP/hydrogen peroxide detection system (Armoracia rusticana, UniProt P00433); assay: Counter assay (Amplex Red; hDAAO omitted, hydrogen peroxide included); settings: Amplex Red detection system without hDAAO
Sequence of HRP/hydrogen peroxide detection system (P00433 31-338): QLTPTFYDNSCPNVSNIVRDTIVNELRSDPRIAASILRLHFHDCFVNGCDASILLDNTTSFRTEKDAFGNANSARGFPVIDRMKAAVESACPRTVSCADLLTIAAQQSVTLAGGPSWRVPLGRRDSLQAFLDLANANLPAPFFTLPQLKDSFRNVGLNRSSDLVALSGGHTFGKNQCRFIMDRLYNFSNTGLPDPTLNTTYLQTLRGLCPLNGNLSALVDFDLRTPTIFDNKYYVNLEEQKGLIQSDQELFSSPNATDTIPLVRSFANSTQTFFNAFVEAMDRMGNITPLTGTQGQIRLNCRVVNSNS
Description: as §2

hDAAO [4] = molecular target: T1, hDAAO; assay: Jump-dilution assay (reversibility, apparent dissociation rate); type: biochemical; settings: for koff: jump-dilution
Description: The assay mixture was similar to that described above for the Amplex Red-based assay system. […] After a 30 min pre-incubation to form inhibited complexes, 195 μl of reaction mixture was added. Compared with the standard assay, 50 mM D-serine was utilized as the hDAAO substrate. […] Immediately after adding the reaction mixture, fluorescent substrate was monitored kinetically by the FlexStation II. Data were fit using the following equation [38] in which Pis the fluorescent product formed, tis the time, vs is the final, steady-state reaction velocity, vi is the initial reaction velocity, and k is the koff: (1) [P]=vst+vi−vs/k(1−e^−kt)

hDAAO [5] = molecular target: T1, hDAAO; assay: D-serine and FAD saturation experiments (mechanism of inhibition, Ki); type: biochemical; settings: for Mechanism of inhibition: D-serine saturation at 40 μM FAD, FAD saturation at 50 mM D-serine; for Ki: global fit of D-serine saturation data to equations (3) and (4), mean±S.D.
Description: To determine inhibitor mechanism of action (D-serine- or FAD-competition), saturation experiments were performed using the Amplex Red system. Keeping D-serine or FAD constant, concentration of the other substrate was varied, and hDAAO enzymatic product was measured fluorescently as described above; these saturation tests were conducted in the presence of variable amounts of inhibitor. In these experiments, there was no preincubation period, such that hDAAO was exposed to D-serine, FAD and inhibitor simultaneously. […] After a 1 h reaction, product was measured using the FlexStation II in the endpoint mode. Data were plotted and fit with a one site, specific binding equation (Graphpad Prism): (2) y=Vmax×x/KM+x
Equation (2) permitted a determination of Vmax and KM at variable inhibitor concentration for a determination of competitive, uncompetitive or non-competitive profile. For D-serine competitive inhibitors, the same data were fit using the GraphPad Prism ‘Competitive inhibition’ equation to derive a global Ki value: (3) KM,obs=KM(1+[I]Ki) (4) y=Vmax×x/KM,obs+x

[6] = In vivo brain penetration after intraperitoneal dosing; settings: mouse, brain and plasma, ip; mice, dosed intraperitoneally; results not shown; read-out: brain:plasma compound ratio
Excerpt: Multiple groups have pursued the discovery of potent, brain-penetrant, drug-like hDAAO inhibitors for use in treating schizophrenia and other nervous system disorders. Thus, the identification of a novel hDAAO conformation could guide the design of the next generation of hDAAO inhibitors. […] Like all existing high-affinity hDAAO inhibitors, interaction of these compounds with Arg^283 of hDAAO requires a carboxylic acid or other electronegative moiety, a feature that is known to reduce brain penetration. […] Potency gained by optimizing ligand binding in these hDAAO regions could conceivably reduce the need for extensive Arg^283 association, and, thus, could facilitate the creation of novel inhibitors of hDAAO.

[7] = 80 μM FAD pre-incubation, 50 mM D-serine, mean±S.D.

Compound	IC50 (hDAAO [1])	IC50 [2]	IC50 (rDAAO (rat DAAO))	Mechanism of inhibition (hDAAO [5])	further results
COc1ccc(CCc2cc(O)c(=O)[nH]n2)c(OC)c1 [Compound 6, 6-(2,4-dimethoxyphenethyl)-4-hydroxypyridazin-3(2H)-one]	24 nM	7.2 ± 1 nM	83 ± 7 nM		IC50 values relative to compound 3 [2]: 5–10 fold
Cc1cc(=O)oc2cc(O)c(CCC(=O)O)cc12 [Compound 4]		18000 nM			hDAAO inhibitory potency weaker than compound 2 ([2]; relative to compound 2): approximately 500 fold
Nc1ncnc2c1ncn2[C@@H]1O[C@H](COP(=O)(O)OP(=O)(O)O)[C@@H](O)[C@H]1O [ADP, reference compound]		580000 ± 80000 nM		FAD-competitive inhibitor of hDAAO; also recorded: D-serine mixed competition, FAD competitive	
O=C(O)c1cc2occc2[nH]1 [Compound 1, 4H-furo[3,2-b]pyrrole-5-carboxylic acid, reference compound]			87 ± 11 nM		inhibition in the counter assay [3]: did not display inhibition

Second part, led by results:

IC50 (hDAAO [1])	IC50 [2]	IC50 (rDAAO (rat DAAO))	Mechanism of inhibition (hDAAO [5])	Compound	further results
230 ± 180 nM	37 ± 14 nM	4000 ± 1400 nM	D-serine competitive, FAD uncompetitive	O=C(O)CCc1cc2c(-c3ccccc3)cc(=O)oc2cc1O [Compound 2, 3-(7-hydroxy-2-oxo-4-phenyl-2H-chromen-6-yl)propanoic acid]	inhibition in the counter assay [3]: did not display inhibition; hDAAO inhibition after dilution (hDAAO [4]; 5 nM compound, 50 mM D-serine recovery conditions): no significant inhibition; reversibility of inhibition (hDAAO [4]; 200 nM then 5 nM jump dilution): reversible inhibition; koff (hDAAO [4]; [7]): 0.12 ± 0.02 (8) per min; Ki (hDAAO [5]): 7 ± 1.4 nM; Kp [6]: < 0.05; inhibition at 0.2 µM ([2]; 200 nM compound): > 80%
13 nM	54 ± 10 nM	130 nM		O=c1[nH]nc(CCc2ccc(O)cc2O)cc1O [Compound 5, 6-(2,4-dihydroxyphenethyl)-4-hydroxypyridazin-3(2H)-one]	IC50 values relative to compound 3 [2]: 5–10 fold
110 ± 20 nM	20 ± 5 nM	47 ± 16 nM	D-serine competitive, FAD uncompetitive	O=c1cc(-c2ccccc2)c2cc(CCc3cc(O)c(=O)[nH]n3)c(O)cc2o1 [Compound 3, 4-hydroxy-6-(2-(7-hydroxy-2-oxo-4-phenyl-2H-chromen-6-yl)ethyl)pyridazin-3(2H)-one]	dissociative half-life (hDAAO [4]; from koff): ~1 h; koff (hDAAO [4]; [7]): 0.015 ± 0.03 (3) per min; koff (hDAAO [4]; read-out: off-rate (koff) (converted)): 0.00025 s⁻¹; Ki (hDAAO [5]): < 10 nM; Kp [6]: < 0.05; more potent as hDAAO inhibitor than compound 2 ([2]; relative to compound 2): approximately 2 fold
